Source: the supplement of paper PMC10627819

Assays:
Assay in all cases: fitness (endpoint OD595 vs no drug) (fraction); higher = more growth
S. aureus Newman = test system: S. aureus Newman
In short: (§1)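 Growth medium was TSB, LB Lennox or CY, and plates were kept at 37 °C. Inoculation was at OD595 0.01 in 384-well plates, at 30 µl per well or 55 µl for S. pneumoniae. OD595 was monitored every 30 min for 14 h and background-subtracted using the first reading. Fitness is the optical density on entering stationary phase divided by the robust mean of no-drug controls, with values capped at 1.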

S. aureus DSM 20231 = test system: S. aureus DSM 20231
In short: as §1

S. pneumoniae D39V = test system: S. pneumoniae D39V
In short: as §1

B. subtilis 168 = test system: B. subtilis 168
In short: as §1
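Also: OD595 on entry to stationary phase over no-drug wells; at most 1.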

CCC[C@@H]1C[C@@H](C(=O)N[C@@H]([C@H]2O[C@H](SC)[C@H](O)[C@@H](O)[C@H]2O)[C@H](C)Cl)N(C)C1 [Clindamycin] + CO[C@@]12[C@H](COC(N)=O)C3=C(C(=O)C(C)=C(N)C3=O)N1C[C@@H]1N[C@@H]12 [Mitomycin C]
Details | fitness
S. aureus DSM 20231, first compound 0.0312 µg/mL, partner 0.0312 µg/mL | 0.466
S. aureus DSM 20231, first compound 0.0312 µg/mL, partner 0.0625 µg/mL | 0.35
S. aureus DSM 20231, first compound 0.0625 µg/mL, partner 0.0156 µg/mL | 0.149
S. aureus DSM 20231, first compound 0.0625 µg/mL, partner 0.0312 µg/mL | 0.117
S. aureus DSM 20231, first compound 0.0625 µg/mL, partner 0.0625 µg/mL | 0.103
S. aureus DSM 20231, first compound 0.125 µg/mL, partner 0.0156 µg/mL | 0.0347
S. aureus DSM 20231, first compound 0.125 µg/mL, partner 0.0312 µg/mL | 0.0369
S. aureus DSM 20231, first compound 0.125 µg/mL, partner 0.0625 µg/mL | 0.083
S. aureus Newman, first compound 0.0312 µg/mL, partner 0.0156 µg/mL | 0.537
S. aureus Newman, first compound 0.0312 µg/mL, partner 0.0312 µg/mL | 0.483
S. aureus Newman, first compound 0.0312 µg/mL, partner 0.0625 µg/mL | 0.412
S. aureus Newman, first compound 0.0625 µg/mL, partner 0.0156 µg/mL | 0.421
S. aureus Newman, first compound 0.0625 µg/mL, partner 0.0312 µg/mL | 0.355
S. aureus Newman, first compound 0.0625 µg/mL, partner 0.0625 µg/mL | 0.243
S. aureus Newman, first compound 0.125 µg/mL, partner 0.0156 µg/mL | 0.138
S. aureus Newman, first compound 0.125 µg/mL, partner 0.0312 µg/mL | 0.163
S. aureus Newman, first compound 0.125 µg/mL, partner 0.0625 µg/mL | 0.0658
S. pneumoniae D39V, first compound 0.0125 µg/mL, partner 0.002 µg/mL | 0.651
S. pneumoniae D39V, first compound 0.0125 µg/mL, partner 0.004 µg/mL | 0.593
S. pneumoniae D39V, first compound 0.0125 µg/mL, partner 0.008 µg/mL | 0.495
S. pneumoniae D39V, first compound 0.015 µg/mL, partner 0.001075 µg/mL | 0.912
S. pneumoniae D39V, first compound 0.015 µg/mL, partner 0.00215 µg/mL | 0.889
S. pneumoniae D39V, first compound 0.015 µg/mL, partner 0.0043 µg/mL | 0.752
S. pneumoniae D39V, first compound 0.025 µg/mL, partner 0.002 µg/mL | 0.36
S. pneumoniae D39V, first compound 0.025 µg/mL, partner 0.004 µg/mL | 0.328
S. pneumoniae D39V, first compound 0.025 µg/mL, partner 0.008 µg/mL | 0.322
S. pneumoniae D39V, first compound 0.03 µg/mL, partner 0.001075 µg/mL | 0.708
S. pneumoniae D39V, first compound 0.03 µg/mL, partner 0.00215 µg/mL | 0.689
S. pneumoniae D39V, first compound 0.03 µg/mL, partner 0.0043 µg/mL | 0.57
S. pneumoniae D39V, first compound 0.05 µg/mL, partner 0.002 µg/mL | 0.187
S. pneumoniae D39V, first compound 0.05 µg/mL, partner 0.004 µg/mL | 0.144
S. pneumoniae D39V, first compound 0.05 µg/mL, partner 0.008 µg/mL | 0.155
S. pneumoniae D39V, first compound 0.06 µg/mL, partner 0.001075 µg/mL | 0.453
S. pneumoniae D39V, first compound 0.06 µg/mL, partner 0.00215 µg/mL | 0.396
S. pneumoniae D39V, first compound 0.06 µg/mL, partner 0.0043 µg/mL | 0.306

CCC[C@@H]1C[C@@H](C(=O)N[C@@H]([C@H]2O[C@H](SC)[C@H](O)[C@@H](O)[C@H]2O)[C@H](C)Cl)N(C)C1 [Clindamycin] + CO/N=C(\C(=O)N[C@@H]1C(=O)N2C(C(=O)[O-])=C(C[N+]3(C)CCCC3)CS[C@H]12)c1csc(N)n1 [Cefepime]
Details | fitness
S. aureus DSM 20231, first compound 0.125 µg/mL, partner 0.125 µg/mL | 0.0728
S. aureus DSM 20231, first compound 0.125 µg/mL, partner 0.25 µg/mL | 0.0809
S. aureus DSM 20231, first compound 0.125 µg/mL, partner 0.5 µg/mL | 0.0837
S. aureus Newman, first compound 0.0312 µg/mL, partner 0.125 µg/mL | 0.781
S. aureus Newman, first compound 0.0312 µg/mL, partner 0.25 µg/mL | 0.713
S. aureus Newman, first compound 0.0312 µg/mL, partner 0.5 µg/mL | 0.601
S. aureus Newman, first compound 0.125 µg/mL, partner 0.125 µg/mL | 0.187
S. aureus Newman, first compound 0.125 µg/mL, partner 0.25 µg/mL | 0.158
S. aureus Newman, first compound 0.125 µg/mL, partner 0.5 µg/mL | 0.151
S. pneumoniae D39V, first compound 0.0125 µg/mL, partner 0.0078 µg/mL | 0.809
S. pneumoniae D39V, first compound 0.0125 µg/mL, partner 0.0155 µg/mL | 0.818
S. pneumoniae D39V, first compound 0.0125 µg/mL, partner 0.031 µg/mL | 0.802
S. pneumoniae D39V, first compound 0.015 µg/mL, partner 0.007 µg/mL | 0.914
S. pneumoniae D39V, first compound 0.015 µg/mL, partner 0.014 µg/mL | 0.937
S. pneumoniae D39V, first compound 0.015 µg/mL, partner 0.028 µg/mL | 0.841
S. pneumoniae D39V, first compound 0.025 µg/mL, partner 0.0078 µg/mL | 0.599
S. pneumoniae D39V, first compound 0.025 µg/mL, partner 0.0155 µg/mL | 0.57
S. pneumoniae D39V, first compound 0.025 µg/mL, partner 0.031 µg/mL | 0.523
S. pneumoniae D39V, first compound 0.03 µg/mL, partner 0.007 µg/mL | 0.771
S. pneumoniae D39V, first compound 0.03 µg/mL, partner 0.014 µg/mL | 0.789
S. pneumoniae D39V, first compound 0.03 µg/mL, partner 0.028 µg/mL | 0.696
S. pneumoniae D39V, first compound 0.05 µg/mL, partner 0.0078 µg/mL | 0.264
S. pneumoniae D39V, first compound 0.05 µg/mL, partner 0.0155 µg/mL | 0.255
S. pneumoniae D39V, first compound 0.05 µg/mL, partner 0.031 µg/mL | 0.241
S. pneumoniae D39V, first compound 0.06 µg/mL, partner 0.007 µg/mL | 0.408
S. pneumoniae D39V, first compound 0.06 µg/mL, partner 0.014 µg/mL | 0.411
S. pneumoniae D39V, first compound 0.06 µg/mL, partner 0.028 µg/mL | 0.365

N[C@@H]1CONC1=O [Cycloserine D] + C[n+]1ccc(-c2cc[n+](C)cc2)cc1 [Paraquat]
fitness
Details | first compound 0.125 µg/mL | first compound 0.25 µg/mL | first compound 0.375 µg/mL | first compound 0.5 µg/mL | first compound 0.75 µg/mL | first compound 1.5 µg/mL
B. subtilis 168, partner 1.25 µg/mL | 0.939 | 0.919 | – | 0.958 | – | –
B. subtilis 168, partner 2.5 µg/mL | 0.911 | 0.905 | – | 0.899 | – | –
B. subtilis 168, partner 5 µg/mL | 0.842 | 0.787 | – | 0.746 | – | –
S. aureus DSM 20231, partner 1.25 µg/mL | – | – | 0.976 | – | 0.978 | 0.964
S. aureus DSM 20231, partner 2.5 µg/mL | – | – | ≥ 1 | – | 0.977 | ≥ 1
S. aureus DSM 20231, partner 5 µg/mL | – | – | 0.977 | – | 0.983 | 0.965
S. aureus Newman, partner 1.25 µg/mL | – | – | 0.962 | – | 0.871 | 0.899
S. aureus Newman, partner 2.5 µg/mL | – | – | 0.979 | – | 0.966 | 0.984
S. aureus Newman, partner 5 µg/mL | – | – | 0.938 | – | 0.969 | 0.93

N[C@@H]1CONC1=O [Cycloserine D] + CC1=C\[C@@H](O)CC(=O)Cc2nc(co2)C(=O)N2CCC=C2C(=O)O[C@H](C(C)C)[C@H](C)/C=C/C(=O)NC\C=C\1 [Virginiamycin M1]
fitness
Details | first compound 0.125 µg/mL | first compound 0.25 µg/mL | first compound 0.375 µg/mL | first compound 0.5 µg/mL | first compound 0.75 µg/mL | first compound 1.5 µg/mL
B. subtilis 168, partner 0.0625 µg/mL | 0.967 | 0.971 | – | 0.852 | – | –
B. subtilis 168, partner 0.125 µg/mL | 0.922 | 0.909 | – | 0.916 | – | –
B. subtilis 168, partner 0.25 µg/mL | 0.921 | 0.906 | – | ≥ 1 | – | –
S. aureus DSM 20231, partner 0.0625 µg/mL | – | – | ≥ 1 | – | ≥ 1 | 0.955
S. aureus DSM 20231, partner 0.125 µg/mL | – | – | ≥ 1 | – | ≥ 1 | ≥ 1
S. aureus DSM 20231, partner 0.25 µg/mL | – | – | 0.999 | – | 1 | ≥ 1
S. aureus Newman, partner 0.0625 µg/mL | – | – | ≥ 1 | – | 0.969 | 0.985
S. aureus Newman, partner 0.125 µg/mL | – | – | ≥ 1 | – | 0.98 | 0.991
S. aureus Newman, partner 0.25 µg/mL | – | – | ≥ 1 | – | 1 | 0.981

fitness, one replicate
Details | first compound 0.375 µg/mL | first compound 0.75 µg/mL | first compound 1.5 µg/mL
S. aureus DSM 20231, partner 0.5 µg/mL | 0.996 | 0.99 | 0.999
S. aureus DSM 20231, partner 1 µg/mL | 0.958 | 0.984 | 0.908
S. aureus Newman, partner 0.5 µg/mL | 0.914 | 0.934 | ≥ 1
S. aureus Newman, partner 1 µg/mL | ≥ 1 | 0.967 | 0.882
S. aureus Newman, partner 2 µg/mL | 0.888 | 0.931 | 0.769

N[C@@H]1CONC1=O [Cycloserine D] + O=C(O[C@@H]1Cc2c(O)cc(O)cc2O[C@@H]1c1cc(O)c(O)c(O)c1)c1cc(O)c(O)c(O)c1 [EGCG]
fitness
Details | partner 6.25 µg/mL | partner 12.5 µg/mL | partner 25 µg/mL | partner 50 µg/mL
B. subtilis 168, first compound 0.125 µg/mL | 0.934 | 0.567 | – | –
B. subtilis 168, first compound 0.25 µg/mL | 0.898 | – | 0.289 | –
B. subtilis 168, first compound 0.5 µg/mL | 0.938 | 0.443 | – | –
S. aureus DSM 20231, first compound 0.375 µg/mL | – | 0.785 | 0.784 | 0.776
S. aureus DSM 20231, first compound 0.75 µg/mL | – | 0.73 | 0.772 | –
S. aureus DSM 20231, first compound 1.5 µg/mL | – | 0.798 | 0.663 | –
S. aureus Newman, first compound 0.375 µg/mL | – | 0.77 | 0.765 | 0.691
S. aureus Newman, first compound 0.75 µg/mL | – | 0.805 | 0.821 | 0.697
S. aureus Newman, first compound 1.5 µg/mL | – | 0.851 | 0.779 | 0.706
